Test results: the supplement of paper PMC11919725

Key:
[1] = tested on: Jurkat; assay: confluency relative to DMSO, 18 h (ratio); higher = more viable
Summary of the method: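 Jurkat cells and primary CD4+/CD8+ T cells, naive or activated with CD3/CD28 Dynabeads for 48 h, were treated with compound (1 nM–10 µM, log10 steps) for 18 h at 37 °C. Following transfer of 100 µl into 96-well plates with IncuCyte Cytotox Dye and alamarBlue, wells were imaged at ×10, five images per well, each hour for 3 h. Confluency, obtained with the IncuCyte Basic Analyzer from phase-contrast images, is normalised to the mean of the control wells.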

[2] = tested on: Jurkat; assay: cytotoxicity relative to DMSO, 18 h (ratio); higher = less cell death (drugs called cytotoxic fall below 1)
Summary of the method: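 The assay used Jurkat cells or naive or CD3/CD28 Dynabead-activated (48 h) primary CD4+/CD8+ T cells, incubated with compound at 1 nM–10 µM in log10 steps for 18 h at 37 °C, 5% CO2. Cytotoxicity was assessed with IncuCyte Cytotox Dye and IncuCyte fluorescence imaging, corrected for confluency and scaled to mean control signals.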

[3] = tested on: Jurkat; assay: metabolic activity relative to DMSO, 18 h (ratio); higher = more viable
Summary of the method: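 Jurkat or primary CD4+/CD8+ T cells (naive, or activated 48 h with CD3/CD28 Dynabeads) were treated 18 h with compound at 1 nM–10 µM (log10 steps) at 37 °C, 5% CO2. Then 100 µl of suspension went into 96-well plates with alamarBlue (10% v/v final). After 3.5 h, fluorescence was read on a FluoStar Omega (excitation 544 nm, emission 584 nm). Metabolic activity is normalised to mean DMSO controls.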

SMILES | confluency ([1]; 1 nM) | confluency ([1]; 10 nM) | confluency ([1]; 100 nM) | confluency ([1]; 1000 nM) | confluency ([1]; 10000 nM) | cytotoxicity ([2]; 1 nM) | cytotoxicity ([2]; 10 nM) | cytotoxicity ([2]; 100 nM) | cytotoxicity ([2]; 1000 nM) | cytotoxicity ([2]; 10000 nM) | metabolic activity ([3]; 1 nM) | metabolic activity ([3]; 10 nM) | metabolic activity ([3]; 100 nM) | metabolic activity ([3]; 1000 nM) | metabolic activity ([3]; 10000 nM)
CC(=O)N1CCC(Nc2cc(C(=O)NCC(O)CN3CCc4ccccc4C3)ncn2)CC1 (stereo not given) [Pemrametostat] | 1.05 | 1.06 | 1.01 | 1.03 | 0.947 | 1.07 | 1.09 | 1.06 | 1.05 | 1.05 | 0.952 | 0.904 | 0.931 | 0.95 | 1.2
CCNC(=O)Nc1ccc(-c2nc3c(c(N4CCOCC4C)n2)CCN(C2COC2)C3)cc1 (stereo not given) [GDC-0349] | 0.992 | 0.981 | 0.955 | 0.932 | 0.873 | 0.991 | 0.972 | 0.947 | 0.887 | 0.78 | 0.925 | 0.919 | 0.886 | 0.841 | 0.798
O=C(CCCCCCNC(=O)c1cnc(N(c2ccccc2)c2ccccc2Cl)nc1)NO [Citarinostat] | 0.975 | 1 | 0.987 | 0.98 | 0.949 | 1.03 | 1.04 | 0.967 | 0.941 | 0.871 | 0.94 | 1.02 | 0.916 | 0.886 | 0.632
Cc1nc(NC(=O)N2CCCC2C(N)=O)sc1-c1ccnc(C(C)(C)C(F)(F)F)c1 (stereo not given) [Alpelisib] | 0.994 | 0.977 | 0.984 | 1.02 | 0.933 | 0.929 | 0.926 | 0.959 | 0.997 | 0.881 | 1.04 | 0.899 | 0.903 | 0.94 | 0.873
CC(C)CC(=O)Nc1n[nH]c2c1CN(C(=O)C1CCN(C)CC1)C2(C)C | 0.887 | 0.876 | 0.978 | 0.97 | 0.591 | 0.914 | 0.908 | 1.05 | 1.07 | 0.406 | 1.17 | 1.2 | 1.26 | 1.24 | 0.438
CCS(=O)(=O)N1CC(CC#N)(n2cc(-c3ncnc4[nH]ccc34)cn2)C1 [Baricitinib] | 0.989 | 0.95 | 0.965 | 0.879 | 0.812 | 0.929 | 0.913 | 1.02 | 0.869 | 0.802 | 0.956 | 1.04 | 1.22 | 1.11 | 0.878
O=c1cc(-c2ccccc2F)[nH]c2cc3c(cc12)OCO3 [CHM-1] | 0.973 | 0.963 | 0.976 | 0.71 | 0.588 | 0.961 | 0.929 | 0.919 | 0.618 | 0.461 | 1.02 | 1.07 | 0.992 | 0.688 | 0.704
CC(Nc1cc(F)cc(F)c1)c1cc(C(=O)N(C)C)cc2c(=O)cc(N3CCOCC3)oc12 (stereo not given) [AZD-8186] | 0.882 | 0.901 | 0.946 | 0.826 | 0.846 | 0.895 | 0.858 | 0.928 | 0.803 | 0.831 | 0.891 | 1.03 | 1.01 | 1.03 | 1.08
Nc1cc(C(F)(F)F)c(-c2cc(N3CCOCC3)nc(N3CCOCC3)n2)cn1 [Buparlisib] | 1.04 | 1.05 | 0.999 | 1.02 | 0.756 | 1.03 | 1.06 | 0.975 | 0.987 | 0.6 | 0.939 | 0.925 | 0.834 | 0.742 | 0.377
CC(=O)c1c(C)c2cnc(Nc3ccc(N4CCNCC4)cn3)nc2n(C2CCCC2)c1=O [Palbociclib] | 0.829 | 0.902 | 0.974 | 1.04 | 0.813 | 0.851 | 0.93 | 0.95 | 1.03 | 0.793 | 0.877 | 0.988 | 0.96 | 0.995 | 0.88
COC(=O)Nc1nc2ccc(C(=O)c3cccs3)cc2[nH]1 [Nocodazole] | 1.02 | 1.06 | 1.14 | 0.907 | 0.731 | 1.03 | 1.08 | 1.02 | 0.807 | 0.59 | 0.881 | 1.08 | 0.621 | 0.589 | 0.554
CN(C)C(=O)c1cc2cnc(Nc3ccc(N4CCNCC4)cn3)nc2n1C1CCCC1 [Ribociclib] | 1 | 0.964 | 1.09 | 1.06 | 1.14 | 0.914 | 0.883 | 1.01 | 0.984 | 1.06 | 0.887 | 0.874 | 0.862 | 0.879 | 0.856
COC1CC2CCC(C)C(O)(O2)C(=O)C(=O)N2CCCCC2C(=O)OC(C(C)CC2CCC(OC(=O)C(C)(CO)CO)C(OC)C2)CC(=O)C(C)C=C(C)C(O)C(OC)C(=O)C(C)CC(C)C=CC=CC=C1C (stereo not given) [Temsirolimus] | 0.971 | 0.876 | 0.899 | 1.02 | 1.05 | 0.937 | 0.781 | 0.787 | 0.958 | 0.925 | 0.977 | 0.927 | 0.903 | 0.93 | 0.762
Cc1c(Cn2c(C)nc3c(C(=O)O)cc(N4CCOCC4)cc32)cccc1C(F)(F)F | 0.923 | 0.973 | 1.05 | 1.03 | 0.998 | 0.881 | 0.947 | 1.05 | 1.14 | 1.01 | 0.862 | 0.891 | 1 | 1.25 | 1.08
CC(C)CC(NC(=O)C(CCc1ccccc1)NC(=O)CN1CCOCC1)C(=O)NC(Cc1ccccc1)C(=O)NC(CC(C)C)C(=O)C1(C)CO1 (stereo not given) [Carfilzomib] | 1 | 0.909 | 0.803 | 0.867 | 0.818 | 1.02 | 0.883 | 0.531 | 0.572 | 0.543 | 1.02 | 0.882 | 0.128 | 0.113 | 0.13
COc1ccc(S(=O)(=O)N(C(C)=O)c2ccccc2C=Cc2cc[n+]([O-])cc2)cc1 [HMN-214] | 0.983 | 0.99 | 0.993 | 0.979 | 0.694 | 1.11 | 0.94 | 0.954 | 0.982 | 0.602 | 1.11 | 0.973 | 0.813 | 0.779 | 0.503
O=C(O)C1(Cc2cccc(Nc3nccs3)n2)CCC(Oc2cccc(Cl)c2F)CC1 (stereo not given) [MK-5108] | 1.01 | 1.02 | 0.89 | 0.865 | 0.868 | 0.966 | 1.05 | 0.922 | 0.881 | 0.932 | 1.02 | 1.05 | 0.922 | 0.763 | 0.756
O=c1[nH]cc(F)c(=O)[nH]1 [5-Fluorouracil] | 1 | 0.981 | 0.992 | 0.978 | 0.996 | 0.997 | 0.931 | 0.995 | 0.946 | 0.985 | 1.03 | 0.913 | 0.967 | 0.999 | 0.971
CN1CC=CCCOc2cccc(c2)-c2ccnc(n2)Nc2cccc(c2)C1 [Zotiraciclib] | 0.992 | 0.992 | 0.923 | 0.908 | 0.882 | 0.95 | 0.924 | 0.468 | 0.473 | 0.436 | 1.03 | 0.912 | 0.094 | 0.085 | 0.05
Cn1cnc2c(F)c(Nc3ccc(Br)cc3F)c(C(=O)NOCCO)cc21 [Binimetinib] | 1 | 1.01 | 0.975 | 0.959 | 0.989 | 1.13 | 1.22 | 1 | 0.926 | 0.948 | 1.13 | 1.12 | 0.989 | 0.909 | 0.933
CN1CCc2c(c3ccccc3n2Cc2ccc(C(=O)NO)cc2)C1 [Tubastatin A] | 0.97 | 0.971 | 0.987 | 0.932 | 0.841 | 1.04 | 1.02 | 1.05 | 0.953 | 0.893 | 1.23 | 1.23 | 1.24 | 1.15 | 1.19
O=C(c1cc(Cc2n[nH]c(=O)c3ccccc23)ccc1F)N1CCN(C(=O)C2CC2)CC1 [Olaparib] | 0.954 | 1.02 | 0.974 | 0.975 | 0.969 | 0.942 | 1.03 | 1 | 1.01 | 0.977 | 1.08 | 1.09 | 0.911 | 0.899 | 1
Nc1nc2cc(CCC3CC(n4ccc5c(N)ncnc54)C(O)C3O)ccc2cc1Br (stereo not given) [Onametostat] | 0.916 | 0.951 | 0.973 | 0.978 | 0.985 | 0.949 | 0.883 | 0.975 | 0.884 | 0.982 | 1.01 | 0.982 | 1.07 | 0.979 | 0.975
Cc1ncsc1-c1ccc(CNC(=O)C2CC(O)CN2C(=O)C(N)C(C)(C)C)cc1 (stereo not given) [VHL ligand 1] | 1.01 | 1.01 | 1.03 | 1.02 | 1.02 | 1.01 | 0.955 | 0.949 | 0.966 | 0.948 | 1.06 | 1.01 | 1.06 | 0.989 | 1.05
NC1CC1c1ccccc1 (stereo not given) [Tranylcypromine] | 0.972 | 0.963 | 0.998 | 1.02 | 1 | 0.98 | 0.941 | 1.15 | 1.08 | 0.956 | 1.02 | 0.916 | 1.14 | 1.08 | 0.962
CN(Cc1cnc2nc(N)nc(N)c2n1)c1ccc(C(=O)NC(CCC(=O)O)C(=O)O)cc1 (stereo not given) [Methotrexate] | 0.943 | 0.828 | 0.619 | 0.576 | 0.603 | 1.05 | 0.897 | 0.666 | 0.571 | 0.585 | 1.12 | 1.08 | 1 | 0.865 | 0.746
CC=C1NC(=O)C2CSSCCC=CC(CC(=O)NC(C(C)C)C(=O)N2)OC(=O)C(C(C)C)NC1=O (stereo not given) [Romidepsin] | 0.987 | 1.07 | 1.02 | 1 | 1.03 | 0.904 | 0.961 | 0.914 | 1.03 | 1.06 | 1.1 | 0.839 | 0.703 | 0.539 | 0.042
Cc1ncc(-c2ccnc(Nc3ccc(S(C)(=O)=O)cc3)n2)n1C(C)C [AZD-5438] | 1.06 | 1.12 | 0.972 | 0.991 | 0.944 | 0.927 | 0.91 | 0.951 | 1.03 | 1.02 | 1.08 | 1.14 | 1.14 | 1.08 | 0.124
Cn1ncnc1C1c2n[nH]c(=O)c3cc(F)cc(c23)NC1c1ccc(F)cc1 (stereo not given) [Talazoparib] | 0.992 | 1 | 0.967 | 0.939 | 0.897 | 0.986 | 1.01 | 0.96 | 0.97 | 0.848 | 1.02 | 0.958 | 1.05 | 1.07 | 1.03
COC1=C2CC(C)CC(OC)C(O)C(C)C=C(C)C(OC(N)=O)C(OC)C=CC=C(C)C(=O)NC(=CC1=O)C2=O (stereo not given) [Geldanamycin] | 0.963 | 1.02 | 0.786 | 0.971 | 0.975 | 0.946 | 0.982 | 0.745 | 0.815 | 0.798 | 0.985 | 0.95 | 0.767 | 0.567 | 0.7
